Measurements reported in patent US10316021B2, “Heteroarylphenoxy benzamide kappa opioid ligands” (Pfizer Inc., priority 2016, dated 2019).
Read-outs that look alike come from different tables or passages of the source.

What was measured:
[1] = tested on: major CYP450 isozymes; experiment: CYP450 DDI cocktail assay (reversible inhibition, all isozymes together); assay type: in vitro ADME, human; settings: for risk of reversible inhibition of CYP450 isozymes, in words: 3 μM; for >25% reversible inhibition of CYP activity at 3 μM (CYP): CYP450 DDI cocktail assay, isozymes inhibited in brackets
Description: Multi-Point Cocktail DDI IC50 Assay Conditions:
Standard marker activity substrates were incubated with pooled human liver microsomes (HL-MIX-102) in the presence of NADPH (1.2 mM) in 100 mM KH2PO4, pH 7.4 containing 3.3 mM MgCl2 at 37° C. The incubation volume was 0.1 mL, utilizing a 384-well plate format. The microsomal protein concentrations (0.1 mg/mL) and P450 concentration (0.035 μM) was used for each probe substrate at the following concentrations [tacrine (1A2) 2 uM; diclofenac (2C9) 5 μM; dextromethorphan (2D6) 5 μM; midazolam (3A4) 2 μM; taxol (2C8) 5 μM; S-mephenytoin (2C19) 40 μM]. Substrate concentrations were near Km values that had been previously determined and incubation times were selected based on determinations of reaction velocity linearity. Each test compound/prototypical inhibitors was tested at a concentration range of 0-30 μM in triplicate, in final vehicle solvent concentrations of 0.9% acetonitrile and 0.1% DMSO. Incubations were initiated with the addition of NADPH. At the end of the incubation period, termination solvent containing internal standard was added, the terminated incubation mixture was centrifuged to precipitate microsomal protein. Samples were directly injected on an HPLC-MS/MS system. A Biomek FX workstation was used for liquid handling and sample incubation.
Reversible CYP450 inhibitory potential for each compound was assessed using the CYP450 DDI cocktail assay, measuring the inhibition of the metabolism of a known probe substrate of each of the major CYP isozymes at 3 μM concentration.

[2] = tested on: CYP3A4; experiment: Single point time dependent inhibition (SPTDI) assay; assay type: in vitro ADME, human
Description: Single Point Time Dependent Inhibition (SPTDI) Assay:
The objective of this study was to investigate the potential of a series of carboxamides to be time dependent inactivators of CYP3A isozymes, in vitro, using midazolam and testosterone as probe substrates for CYP 3A4/5 activity incubated with pooled human liver microsomes (HLM). Pooled HLMs (0.1-1.0 mg/ml) were pre-incubated with individual carboxamides at initial substrate concentrations of 6 or 10 μM in the presence and absence of NADPH (1.3 mM). Pre-incubations (n=2/compound) were performed for 30 min at 37° C. After pre-incubation, a 10-fold dilution of the incubate (0.02 ml) was added to the probe substrate incubate (0.18 ml) containing the respective probe P450 isozyme substrate (midazolam or testosterone for CYP3A, 1 uM), and was incubated at 37° C. The combined incubation reactions were terminated and analyzed for marker substrate activity (Ex: hydroxyl metabolite of midazolam and 6β hydroxy testesterone) as described previously (Walsky and Obach, 2004; Obach et al., 2007). Terminated incubation mixtures were filtered and analyzed by liquid chromatography (LC)-tandem mass spectrometry (MS/MS) for metabolites as described previously (Walsky and Obach, 2004). To determine kobs,app values, the decrease in natural logarithm of the activity over time was plotted for each inactivator concentration, and kobs,app values were described as the negative slopes of the lines. Inactivation kinetic parameters were determined using nonlinear regression of the data to the expression in eq. 1:
[formula] Statistical significance of kobs between solvent and test incubations was inferred using analysis performed by Yates et al. (Yates P, Eng H, Di L, Obach R S. Drug Metab Dispos 2012; 40:2289-96).
Irreversible inhibition, or time-dependent inhibition (TDI) of cytochrome P450s (CYPs) is generally characterized by an increase in enzyme inhibition with respect to time and inhibitor concentration (Grimm 2009). In cases where enzyme inhibition requires metabolic turnover, the mechanism generally involves the formation of a reactive inhibitory intermediate that may irreversibly inactivate CYPs; this mechanism could cause clinical drug-drug interactions due to inhibition of the relevant CYP responsible for metabolizing the victim drug (Grimm 2009; Rowland Yeo 2011). Hazard assessment for irreversible CYP450 inhibitory potential of CYP3A was performed for several compounds in Table 22 using the single point time dependent inhibition (SPTDI) assay, which measures the pseudo-first order rate constant of inactivation (kobs) at a single high concentration (6-10 μM) of a test compound (Zimmerlin 2011). Based on the analysis performed by Yates (2008), compounds showing a kobs of >0.008 min^−1 in this assay are considered to have a potential for TDI, and kobs<0.008 min^−1 are negative or may have a very weak potential for TDI at CYP3A4.

[3] = target: T1, human mu opioid receptor (hMOR) (Homo sapiens, UniProt P35372); experiment: Mu radioligand binding assay ([3H]diprenorphine, CHO cell membranes); settings: read-out: hMOR binding assay Ki
T1 construct: expressed in transfected cells; host or cells: CHO cells
Method in brief: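 Membranes from CHO cells expressing human mu receptor were incubated 1 h at room temperature with [3H]diprenorphine (0.5 nM final) in Tris pH 7.4 buffer with EDTA and MgCl2; naltrexone (10 μM) defined non-specific binding. Filter-bound radioactivity was counted; Ki derived by Cheng-Prusoff from IC50.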

[4] = tested on: isolated rat mitochondria; experiment: Respirometric screening technology (RST) assay; assay type: biochemical; settings: for RST inhibitory: inhibition of oxidative phosphorylation
Description: Respirometric Screening Technology (RST) Assay:
This assay was carried out substantially as described in Hynes et al. Toxicological Sciences 91(1), 186-200 (2006). More specifically, the assay conditions were similar to those described for the “Fluorescence-based assay of mitochondrial respiration” at page 188-189 of the Hynes reference.
Mitochondrial dysfunction has also been noted as a characteristic feature of many chronic illnesses, including bipolar disorder, Parkinson's disease, schizophrenia, depression, autism, and chronic fatigue syndrome (Morris 2015). Mitochondrial dysfunction can be assessed by measuring mitochondrial oxygen consumption in isolated rat mitochondria using luminescent oxygen-sensitive probes in a respirometric screening technology (RST) assay (Hynes 2006); both inhibition and uncoupling of oxidative phosphorylation in the RST assay were measured for compounds in Table 23.

[5] = Table 19, geometric mean of 2-6 determinations unless otherwise indicated (Example 3: >=7)

T1 sequence (P35372 whole entry): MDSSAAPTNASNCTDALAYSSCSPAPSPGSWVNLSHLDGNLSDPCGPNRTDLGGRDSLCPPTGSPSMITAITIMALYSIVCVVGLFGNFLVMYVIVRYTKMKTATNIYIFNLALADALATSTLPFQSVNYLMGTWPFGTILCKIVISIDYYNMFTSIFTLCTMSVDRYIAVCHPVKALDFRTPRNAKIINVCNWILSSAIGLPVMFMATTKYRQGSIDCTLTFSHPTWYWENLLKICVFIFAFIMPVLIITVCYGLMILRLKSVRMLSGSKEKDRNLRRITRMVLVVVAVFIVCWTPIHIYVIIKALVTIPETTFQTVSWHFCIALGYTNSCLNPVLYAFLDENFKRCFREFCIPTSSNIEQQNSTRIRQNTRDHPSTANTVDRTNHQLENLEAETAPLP

Row | SMILES | risk of reversible inhibition of CYP450 isozymes, in words [1] | >25% reversible inhibition of CYP activity at 3 μM (CYP) [1] | risk of time dependent inhibition (TDI) at CYP3A4, in words [2] | risk of time dependent inhibition (TDI) at CYP3A4, in words ([2]; listed as Compound 12) | SPTDI CYP3A4 kobs ([2]; single high dose of 10 μM) [min⁻¹] | Ki [3, 5] [nM] | Ki ([3]; Table 20, radioligand binding) [nM] | activity in the RST assay (inhibition / uncoupling of oxidative phosphorylation), in words [4] | RST inhibitory [4] | risk of time dependent inhibition (TDI) at CYP3A4, in words ([2]; listed as Compound 8) | SPTDI CYP3A4 kobs ([2]; single dose of 6 μM) | SPTDI kobs at CYP3A4 ([2]; tested at 6 μM) [min⁻¹] | SPTDI kobs at CYP3A4 ([2]; tested at 10 μM) [min⁻¹] | risk of time dependent inhibition (TDI) at CYP3A4, in words ([2]; listed as Compound 11)
1 | COc1nn(C)cc1[C@@H]1CCCN1Cc1ccc(Oc2ccc(C(N)=O)cc2)cc1 (single isomer, unassigned) [Example 12] | no significant risk of reversible inhibition | no | low to no significant risk for TDI at CYP3A4 | not time dependent inactivators of CYP3A4 | 0.0042 | 46.2 | 46 | no significant activity | No effect | – | – | – | – | –
2 | COc1nn(C)cc1C1CCCN1Cc1ccc(Oc2ccc(C(N)=O)cc2F)cc1 (single isomer, unassigned; (-)) [Example 8, (−)-3-Fluoro-4-(4-{[2-(3-methoxy-1-methyl-1H-pyrazol-4-yl)pyrrolidin-1-yl]methyl}phenoxy)benzamide] | no significant risk of reversible inhibition | no | low to no significant risk for TDI at CYP3A4 | – | 0.0044 | 98.7 | 99 | no significant activity | No effect | not time dependent inactivators of CYP3A4 | – | – | – | –
3 | NC(=O)c1ccc(Oc2ccc(CN3CCC(c4ccccc4)C3)cc2)nc1 (centres unmarked) [Comparator A, reference compound] | – | no | – | – | – | – | 0.1 | – | – | – | – | – | – | –
4 | NC(=O)c1ccc(Oc2ccc(CN3CCCCC3c3ccccc3)cc2)nc1 (centres unmarked) [Comparator B] | – | no | – | – | 0.0041 | – | – | – | No effect | – | – | – | – | –
5 | NC(=O)c1ccc(Oc2ccc(CN3CCCC3c3cccnc3)cc2)c(Cl)c1 (centres unmarked) [Comparator C] | a risk for reversible DDI at CYP450 isozymes 2C8, 2C9, 3A4, and/or 2D6 | yes (2C8, 2C9, | – | – | – | – | 21 | μM inhibitory activity | 21 µM | – | – | – | – | –
6 | NC(=O)c1ccc(Oc2ccc(CN3CCCC3c3ccccc3)cc2)nc1 (centres unmarked) [Comparator D] | a risk for reversible DDI at CYP450 isozymes 2C8, 2C9, 3A4, and/or 2D6 | yes (2D6) | – | – | 0.0065 | – | 163 | – | No effect | – | – | – | – | –
7 | Cc1cc(C)cc([C@@H]2CCCN2Cc2ccc(Oc3ccc(C(N)=O)cc3F)cc2)c1 [Comparator E, reference compound] | a risk for reversible DDI at CYP450 isozymes 2C8, 2C9, 3A4, and/or 2D6 | yes (2C8) | potential risk of CYP3A4 TDI | – | – | – | 7.8 | μM inhibitory activity | 19 µM | – | 0.0113^2 min−1 | 0.011 | – | –
8 | NC(=O)c1ccc(Oc2ccc(CN3CCC[C@H]3c3cccc(F)c3)cc2)c(F)c1 [Comparator F] | – | no | potential risk of CYP3A4 TDI | – | 0.0133 | – | 37.5 | – | 66 µM | – | – | – | 0.0133 | –
9 | Cc1nn(C)cc1[C@@H]1CCCN1Cc1ccc(Oc2ccc(C(N)=O)cc2)cc1 [Example 11, 4-(4-{[(2S)-2-(1,3-Dimethyl-1H-pyrazol-4-yl)pyrrolidin-1-yl]methyl}phenoxy)benzamide] | no significant risk of reversible inhibition | no | low to no significant risk for TDI at CYP3A4 | – | 0.0055 | 51 | 51 | no significant activity | No effect | – | – | – | – | not time dependent inactivators of CYP3A4
